This is an account of results in patent publication US20250194601A1, “PYRIDAZINONE COMPOUND OR SALT THEREOF AND PEST CONTROL AGENT CONTAINING IT” (ISHIHARA SANGYO KAISHA, LTD., priority 2022, published 2025).

Molecules are shown by their SMILES.

Common to all, as to type: in vivo
Assay [1] relates to green peach aphid (Myzus persicae). The assay is described as follows: whole plant or invertebrate. Conditions: in Raphanus sativus, foliar, nymphs, 5th day after the application. From the text: Test on effect against green peach aphid (Myzus persicae)
(§1) A Japanese radish leaf was inserted in a test tube in which water was put, and 5 adults of green peach aphid were released on the leaf. On the next day, the adults were removed, and the number of nymphs parasitic on the leaf was counted as the number of tested nymphs, and then the leaf was dipped in a chemical solution of a test compound at a concentration of 200 ppm or 50 ppm. After the chemical solution dried in air, the leaf was left in a constant temperature chamber with lighting at 25° C. On the 5th day after the application, the number of dead nymphs was counted, and the mortality (%) was calculated by the following formula. Nymphs that dropped from the leaf or nymphs that were moribund were counted as dead nymphs.
Mortality (%)=[(Number of dead nymphs)/(number of tested nymphs)]x100

For assay [2], the system named is brown planthopper (Nilaparvata luqens). Put plainly: whole plant or invertebrate. Conditions: in Oryza sativa, second to third instar nymphs, 5th day after release. From the text:
Test on effect against brown planthopper (Nilaparvata luqens) Rice seedlings were dipped in a chemical solution of a test compound at a concentration of 200 ppm or 50 ppm. After the chemical solution dried in air, the root was wrapped with wet adsorbent cotton, and the seedlings were put into a test tube. About 10 second to third instar nymphs of brown planthopper were released, the test tube was covered with a gauze, and the test tube was left in a constant temperature chamber with lighting at 25° C. On the 5th day after release, the number of dead nymphs was counted, and the mortality (%) was calculated by the following formula.
Mortality (%)=[(number of dead nymphs)/(number of released nymphs)]×100

The test system is the same in assay [3]. Put plainly: Comparative Test Example 1: brown planthopper, rice seedling dip. The conditions noted are these: 5th day after release; for mortality at 50 ppm: Active ingredient concentration 50 ppm; for mortality at 200 ppm: Active ingredient concentration 200 ppm. As for the experimental part:
Rice seedlings were dipped in a chemical solution of a test compound at a concentration of 200 ppm or 50 ppm. After the chemical solution dried in air, the root was wrapped with wet adsorbent cotton, and the seedlings were put into a test tube. About 10 second to third instar nymphs of brown planthopper (Nilaparvata luqens)were released, the test tube was covered with a gauze, and the test tube was left in a constant temperature chamber with lighting at 25° C. On the 5th day after release, the number of dead nymphs was counted, and the mortality (%) was calculated by the following formula.
The test compounds are Compound No. 2-12 as the compound of the present invention and the following Comparative Compounds (A) and (B) as the comparative compounds.

The subject of assay [4] is green peach aphid (Myzus persicae). Put plainly: Comparative Test Example 2: green peach aphid, radish leaf dip. The conditions noted are these: foliar, 5th day after the application; for mortality at 50 ppm: Active ingredient concentration 50 ppm; for mortality at 200 ppm: Active ingredient concentration 200 ppm.
From the text: as §1, with “aphid (Myzus persicae)” for “aphid”, “[…].” for “25° C.”
The test compounds were the same as in Comparative Test Example 1.

Assay [5] deals with two-spotted spider mite (Tetranychus urticae). The assay is described as follows: Test Example 3: effects against two-spotted spider mite, kidney bean leaf dip. The conditions noted are these: foliar, adults, 3rd day after the application. As for the experimental part: Test on effects against two-spotted spider mite (Tetranychus urticae) In a chemical solution of a test compound at a concentration of 800 ppm, 200 ppm or 50 ppm, a leaf of kidney bean on which about 20 adults of two-spotted spider mite had been released, was dipped. After the chemical solution dried in air, the leaf was left in a constant temperature chamber with lighting at 25° C. On the 3rd day after the application, the number of dead adults was counted, and the mortality (%) was calculated by the following formula. Adults that dropped from the leaf or adults that were moribund were counted as dead adults.

Turning to `CCc1nn(-c2ncc(C(F)(F)F)cc2Cl)c(=O)c(-n2ccc(C(F)(F)F)n2)c1O` [1-57, 2-[3-chloro-5-(trifluoromethyl)pyridin-2-yl]-6-ethyl-5-hydroxy-4-[3-(trifluoromethyl)-1 H-pyrazol-1-yl]pyridazin-3(2H)-one], the mortality at 200 ppm in assay [1] and in assay [2] was at least 90% throughout.

For the molecule `CCc1nn(-c2ccc(C(F)(F)F)cc2Cl)c(=O)c(-n2ccc(C(F)(F)F)n2)c1O` [2-12], the mortality at 200 ppm in assay [1] was at least 90%; in assay [2] it was at least 90%; in assay [3] it was 100%; in assay [4], 100%. The mortality at 50 ppm in assay [3] and in assay [4] was 100% each time. For the same molecule, the mortality at 800 ppm in assay [5] is at least 80%.

On to `CCc1nn(-c2c(Cl)cc(C(F)(F)F)cc2Cl)c(=O)c(-n2ccc(C(F)(F)F)n2)c1O` [2-97, 2-[2,6-dichloro-4-(trifluoromethyl)phenyl]-6-ethyl-5-hydroxy-4-[3-(trifluoromethyl)-1 H-pyrazol-1-yl]pyridazin-3(2H)-one], for which the mortality at 200 ppm in assay [1] and in assay [2] was at least 90% each time. The molecule also registered a mortality at 800 ppm in assay [5] of at least 80%.

Turning to `CCc1nn(-c2c(C)cc(S(=O)(=O)C(F)(F)F)cc2C)c(=O)c(-n2ccc(Cl)n2)c1O` [2-191, 4-(3-chloro-1 H-pyrazol-1-yl)-2-{2,6-dimethyl-4-[(trifluoromethyl)sulfonyl]phenyl}-6-ethyl-5-hydroxypyridazin-3(2H)-one], the mortality at 200 ppm in assay [1] and in assay [2] was at least 90% each time.

`COCc1nn(-c2c(C)cc(C(F)(F)F)cc2C)c(=O)c(-n2ccc(Cl)n2)c1O` [2-444, 4-(3-chloro-1 H-pyrazol-1-yl)-2-[2,6-dimethyl-4-(trifluoromethyl)phenyl]-5-hydroxy-6-(methoxymethyl)pyridazin-3(2H)-one]: the mortality at 200 ppm in assay [1] and in assay [2] was at least 90% in each case.

For the molecule `Cc1ccn(-c2c(O)c(C(F)(F)F)nn(-c3c(C)cc(C(F)(F)F)cc3C)c2=O)n1` [2-516, 2-[2,6-dimethyl-4-(trifluoromethyl)phenyl]-5-hydroxy-4-(3-methyl-1 H-pyrazol-1-yl)-6-(trifluoromethyl)pyridazin-3(2H)-one], the mortality at 200 ppm was at least 90% in assay [1], at least 90% in assay [2] and at least 80% in assay [5].

Take `CCc1nn(-c2c(C)cc(C(F)(F)F)cc2C)c(=O)c(-n2cnc([N+](=O)[O-])n2)c1O` [6-65, 2-[2,6-dimethyl-4-(trifluoromethyl)phenyl]-6-ethyl-5-hydroxy-4-(3-nitro-1 H-1,2,4-triazol-1-yl)pyridazin-3(2H)-one]: the mortality at 200 ppm in assay [1] and in assay [2] was at least 90% in each case.

For the molecule `CCc1ncn(-c2c(O)c(C(C)C)nn(-c3c(C)cc(C(F)(F)F)cc3C)c2=O)n1` [6-134, 2-[2,6-dimethyl-4-(trifluoromethyl)phenyl]-4-(3-ethyl-1 H-1,2,4-triazol-1-yl)-5-hydroxy-6-isopropylpyridazin-3(2H)-one], the mortality at 200 ppm in assay [1] was at least 90%; in assay [2], at least 90%; in assay [5], at least 80%.

As for `CCc1nn(-c2c(C)cc(C#N)cc2C)c(=O)c(-n2cnc(Cl)n2)c1O` [6-136, 4-[5-(3-chloro-1 H-1,2,4-triazol-1-yl)-3-ethyl-4-hydroxy-6-oxopyridazin-1(6H)-yl]-3,5-dimethylbenzonitrile], the mortality at 200 ppm in assay [1] and in assay [2] was at least 90% in each case.

For `CCc1nn(C)c(=O)c(-n2ccc(C(F)(F)F)n2)c1O` [Comparative compound (A)], the mortality at 50 ppm in assay [3] and in assay [4] was 0% each time. The mortality at 200 ppm is 0% in assay [3] and 20% in assay [4].

In assay [3], `CCc1nn(-c2ccc(C(F)(F)F)cc2Cl)c(=O)c(-c2ccc(F)cc2)c1O` [Comparative compound (B)] had a mortality at 50 ppm of 0% and a mortality at 200 ppm of 0%. Further, in assay [4], the mortality at 50 ppm was determined as 0% and the mortality at 200 ppm stood at 30%.

The mortality is the share of the test organisms that died.
